Laboratory results as given in patent US20120165319A1, “INHIBITORS OF INTERLEUKIN-1 BETA CONVERTING ENZYME” (VERTEX PHARMACEUTICALS INCORPORATED, priority 1995, published 2012).

Experiments:
[1] = In vivo bioavailability determination (oral, rat)
Method: In Vivo Bioavailability Determination
The drugs (10-100 mg/kg) were dosed orally to rats (10 mL/kg) in ethanol/PEG/water, β-cyclodextrin, labrosol/water or cremophor/water. Blood samples were drawn from the carotid artery at 0.25, 0.50, 1, 1.5, 2, 3, 4, 6, and 8 hours after dosing, centrifuged to plasma and stored at −70° C. until analysis. Aldehyde concentrations were determined using an enzymatic assay. Pharmacokinetic analysis of data was performed by non-linear regression using RStrip (MicroMath Software, UT).

[2] = tested on: male DBA/1J mice, type II collagen-induced arthritis; assay: Type II collagen-induced arthritis; format: in vivo, mouse; details: oral gavage twice a day 10, 25 and 50 mg/kg (214e: 50 mg/kg once a day), Arthritis Severity Score, result in words
Method: Type II Collagen-Induced Arthritis
Type II collagen-induced arthritis was established in male DBA/1J mice at described Wooley and Geiger (Wooley, P. H., Methods in Enzymology, 162, pp. 361-373 (1988) and Geiger, T., Clinical and Experimental Rheumatology, 11, pp. 515-522 (1993)). Chick sternum Type II collagen ([…] in 10 mM acetic acid) was emulsified with an equal volume of Freund's complete adjuvant (FCA) by repeated passages (400) between two 10 ml glass syringes with a gauge 16 double-hub needle. Mice were immunized by intradermal injection (50 μl; […], CII per mouse) of collagen emulsion 21 days later at the contra-lateral side of the tail base. Drugs were administered twice a day (10, 25 and 50 mg/kg) by oral gavage approximately 7 h apart. Vehicles used included ethanol/PEG/water, β-cyclodextrin, labrosol/water or cremophor/water. Drug treatments were initiated within 2 h of the CII booster immunization. Inflammation was scored on a 1 to 4 scale of increasing severity on the two front paws and the scores are added to give the final score.

[3] = biological target: T1, ICE (Homo sapiens, UniProt P29466); assay: Inhibition of IGIF processing by ICE inhibitors, measured in ICE inhibition assays (Example 27, Table 22); format: biochemical; details: read-out: UV-Visible Ki
T1 sequence (P29466 120-297 limits assumed): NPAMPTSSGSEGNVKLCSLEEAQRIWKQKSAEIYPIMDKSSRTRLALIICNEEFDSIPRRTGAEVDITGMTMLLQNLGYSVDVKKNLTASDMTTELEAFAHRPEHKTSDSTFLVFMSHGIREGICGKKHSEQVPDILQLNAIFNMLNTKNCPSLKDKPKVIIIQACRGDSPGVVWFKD
T1 sequence (P29466 317-404 limits assumed): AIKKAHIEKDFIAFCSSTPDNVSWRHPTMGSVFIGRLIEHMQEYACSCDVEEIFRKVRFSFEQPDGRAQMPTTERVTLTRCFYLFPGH
Method: Inhibition of IGIF processing by ICE inhibitors was measured in ICE inhibition assays as described herein (see Example 1 and Table 22).

Ki [3] [nM]	SMILES	blood levels of drug when dosed orally ([1]; oral 10-100 mg/kg, result in words)	Drug Availability ([1]; oral, dose 45 mg/kg) [%]	Cmax ([1]; plasma, oral, dose 45 mg/kg, read-out: Cmax) [ng/mL]	inhibition of inflammation / progression of type II collagen-induced arthritis [2]
	O=C[C@H](CC(=O)O)NC(=O)[C@@H]1CCCN2C(=O)CC[C@H](NC(=O)c3ccccc3)C(=O)N12 [Compound 214e, [3S(1S,9S)]3-(9-Benzoylamino-6,10-dioxo-1,2,3,4,7,8,9,10-octahydro-6H-pyridazino[1,2-a][1,2]-diazepine-1-carboxamido)-4-oxobutanoic acid]	not detected	0.9	200	did not inhibit inflammation
1.3	O=C[C@H](CC(=O)O)NC(=O)[C@@H]1CCCN2C(=O)CC[C@H](NC(=O)c3nccc4ccccc34)C(=O)N12 [Compound 412, [3S(1S,9S)]3-[6,10-Dioxo-9-(isoquinolin-1-oylamino)-1,2,3,4,7,8,9,10-octahydro-6H-pyridazino[1,2-a][1,2]diazepine-1-carboxamido]-4-oxobutanoic acid]				
